Laboratory results taken from patent publication US8722849B2, “Polypeptides” (Novo Nordisk A/S, priority 2011, dated 2014).
pEC50: −log10 of the molar value. Values after ≈ are worked out from the molar mass of the structure shown. Read-outs that look alike come from different tables or passages of the source. Starred links: 1 amine or outer side, 2 acyl side, 3 side chain; linkers in the order of their positions; H or OH if unused. Positions of bridges follow the written chain, without caps; N, C: chain ends. Residues, ends and D or L forms follow the SMILES beside them. *: point of attachment. C20 diacid = O=C(O)CCCCCCCCCCCCCCCCCCC(=O)*; γGlu = O=C(O)[C@H](CCC(=O)[*:2])N[*:1]

Experiments:
[1] = molecular target: T1, human amylin receptor (amylin 3(a) receptor: human calcitonin receptor + RAMP-3) (Homo sapiens, UniProt O60896+P30988); experiment: Assay (II)a functional CRE-luciferase assay, human amylin receptor; assay type: cell-based
T1 construct: expressed in transfected cells; host or cells: BHK570
T1 sequence (P30988 25-474): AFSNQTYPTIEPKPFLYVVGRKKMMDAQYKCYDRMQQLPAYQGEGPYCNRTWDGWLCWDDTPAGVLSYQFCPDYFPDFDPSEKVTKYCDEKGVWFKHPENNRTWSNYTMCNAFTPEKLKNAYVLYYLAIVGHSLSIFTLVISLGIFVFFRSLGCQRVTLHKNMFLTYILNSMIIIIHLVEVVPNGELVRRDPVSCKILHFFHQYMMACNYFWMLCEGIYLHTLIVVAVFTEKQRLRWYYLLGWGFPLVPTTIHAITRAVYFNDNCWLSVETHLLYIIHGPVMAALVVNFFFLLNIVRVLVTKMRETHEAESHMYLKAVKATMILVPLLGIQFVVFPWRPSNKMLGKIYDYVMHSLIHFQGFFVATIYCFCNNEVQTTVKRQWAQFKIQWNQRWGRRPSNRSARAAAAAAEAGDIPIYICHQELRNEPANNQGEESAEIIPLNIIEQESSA
T1 sequence (O60896 24-148 partner): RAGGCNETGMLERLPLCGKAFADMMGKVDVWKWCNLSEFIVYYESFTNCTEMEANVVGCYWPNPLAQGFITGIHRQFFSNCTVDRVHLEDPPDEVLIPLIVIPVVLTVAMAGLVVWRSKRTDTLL

[2] = molecular target: T2, human calcitonin receptor (Homo sapiens, UniProt P30988); experiment: Assay (II)a functional CRE-luciferase assay, human calcitonin receptor; assay type: cell-based
T2 construct: expressed in transfected cells; host or cells: BHK570
T2 sequence (P30988 25-474): T1 sequence (P30988 25-474)

[3] = Assay (III) ThT fibrillation assay for physical stability; assay type: physicochemical; conditions: ThT fibrillation assay
In short: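 Freshly prepared formulations, pH-adjusted, with 1 μM ThT; four or eight replicates incubated at 37 °C under 960 rpm orbital shaking. Fluorescence (ex 444/em 485 nm) read every 20 min; […]. Peptide concentration measured by RP-HPLC before and after the run.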

[4] = Assay (IV) determination of solubility; assay type: physicochemical
In short: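 Polypeptide in water (~500 nmol/ml stock) was mixed 1:1 with 100 mM buffers from pH 3.0 to 8.0 (glycylglycine pH 3.0–5.0; bistrispropane pH 6.0–8.0). After 18 hours at room temperature, samples were centrifuged and the polypeptide remaining in solution was quantified by HPLC.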

[5] = Table 2, BHK amylin 3(a)-receptor/CRE-luc cells
[6] = Table 7, human calcitonin (CTa) receptor
[7] = bistrispropane buffer, pH 6, pH 6.0, read-out: Solubility pH 6.0
[8] = bistrispropane buffer, pH 6.5, pH 6.5, read-out: Solubility pH 6.5
[9] = bistrispropane buffer, pH 7, pH 7.0, read-out: Solubility pH 7.0
[10] = bistrispropane buffer, pH 7.5, pH 7.5, read-out: Solubility pH 7.5
[11] = bistrispropane buffer, pH 8, pH 8.0, read-out: Solubility pH 8.0
[12] = glycylglycine buffer, pH 3, pH 3.0, read-out: Solubility pH 3.0
[13] = glycylglycine buffer, pH 4, pH 4.0, 18 hours at room temperature, Table 2, read-out: Solubility pH 4.0
[14] = glycylglycine buffer, pH 4, pH 4.0, read-out: Solubility pH 4.0
[15] = glycylglycine buffer, pH 5, pH 5.0, read-out: Solubility pH 5.0

Row | pEC50 [1, 5] | pEC50 [2, 6] | ThT pH 4.0 lag time (h) [3] [h] | solubility at 18 h [4, 7] [µM] | solubility at 18 h [4, 8] [µM] | solubility at 18 h [4, 9] [µM] | solubility at 18 h [4, 10] [µM] | solubility at 18 h [4, 11] [µM] | solubility at 18 h [4, 12] [µM] | solubility at 18 h [4, 13] [µM] | solubility at 18 h [4, 14] [µM] | solubility at 18 h [4, 15] [µM] | SMILES | ThT pH 4.0 lag time [3] [h] | also measured
1 | 9.41 | 9.24 | >45 | 2 (≈ 8.92 µg/mL) | 1 (≈ 4.46 µg/mL) | 1 (≈ 4.46 µg/mL) | 1 (≈ 4.46 µg/mL) | 3 (≈ 13.4 µg/mL) | > 200 | > 200 | > 200 | > 200 | CC[C@H](C)[C@H](NC(=O)[C@@H]1CCCN1C(=O)CNC(=O)[C@H](Cc1ccccc1)NC(=O)[C@H](CC(N)=O)NC(=O)[C@H](CO)NC(=O)[C@H](CO)NC(=O)[C@H](CO)NC(=O)[C@H](Cc1c[nH]cn1)NC(=O)[C@H](CCCNC(=N)N)NC(=O)[C@H](CC(C)C)NC(=O)[C@H](Cc1ccccc1)NC(=O)[C@H](CCC(=O)O)NC(=O)[C@H](C)NC(=O)[C@H](CC(C)C)NC(=O)[C@H](CCCNC(=N)N)NC(=O)[C@H](CCC(N)=O)NC(=O)[C@@H](NC(=O)[C@H](C)NC(=O)[C@@H]1CSSC[C@H](NC(=O)[C@H](Cc2c[nH]cn2)NC(=O)CC[C@H](NC(=O)CCCCCCCCCCCCCCCCCCC(=O)O)C(=O)O)C(=O)N[C@@H](CC(N)=O)C(=O)N[C@@H]([C@@H](C)O)C(=O)N[C@@H](C)C(=O)N[C@@H]([C@@H](C)O)C(=O)N1)[C@@H](C)O)C(=O)N[C@@H](CC(C)C)C(=O)N[C@@H](CO)C(=O)N[C@@H](CO)C(=O)N[C@H](C(=O)N[C@@H](CC(N)=O)C(=O)N[C@H](C(=O)NCC(=O)N[C@@H](CO)C(=O)N[C@@H](Cc1c[nH]cn1)C(=O)N[C@H](C(=O)N[C@@H](Cc1ccc(O)cc1)C(N)=O)[C@@H](C)O)C(C)C)[C@@H](C)O [Example 111, N-alpha-[(S)-4-Carboxy-4-(19-carboxynonadecanoylamino)butyryl]-[His1,Glu14,Arg17,Ser21,Ser28,Ser29,His35]-pramlintide] ({C20 diacid-γGlu}-HCNTATCATQRLAEFLRHSSSNFGPILSSTNVGSHTY-NH2; disulfide 2-7 (inferred)) | >45 | 
2 |  |  | 1.7 | > 200 | > 200 | > 200 | > 200 | > 200 | > 200 |  | > 200 | > 200 | CC[C@H](C)[C@H](NC(=O)[C@@H]1CCCN1C(=O)CNC(=O)[C@H](Cc1ccccc1)NC(=O)[C@H](CC(N)=O)NC(=O)[C@H](CC(N)=O)NC(=O)[C@H](CO)NC(=O)[C@H](CO)NC(=O)[C@H](Cc1c[nH]cn1)NC(=O)[C@@H](NC(=O)[C@H](CC(C)C)NC(=O)[C@H](Cc1ccccc1)NC(=O)[C@H](CC(N)=O)NC(=O)[C@H](C)NC(=O)[C@H](CC(C)C)NC(=O)[C@H](CCCNC(=N)N)NC(=O)[C@H](CCC(N)=O)NC(=O)[C@@H](NC(=O)[C@H](C)NC(=O)[C@@H]1CSSC[C@H](NC(=O)[C@H](CCCNC(=N)N)NC(=O)CC[C@H](NC(=O)CCCCCCCCCCCCCCCCCCC(=O)O)C(=O)O)C(=O)N[C@@H](CC(N)=O)C(=O)N[C@@H]([C@@H](C)O)C(=O)N[C@@H](C)C(=O)N[C@@H]([C@@H](C)O)C(=O)N1)[C@@H](C)O)C(C)C)C(=O)N[C@@H](CC(C)C)C(=O)N1CCC[C@H]1C(=O)N1CCC[C@H]1C(=O)N[C@H](C(=O)N[C@@H](CC(N)=O)C(=O)N[C@H](C(=O)NCC(=O)N[C@@H](CO)C(=O)N[C@@H](CC(N)=O)C(=O)N[C@H](C(=O)N1CCC[C@H]1C(N)=O)[C@@H](C)O)C(C)C)[C@@H](C)O [Example 97] ({C20 diacid-γGlu}-RCNTATCATQRLANFLVHSSNNFGPILPPTNVGSNTP-NH2; disulfide 2-7 (inferred); C-terminus assumed) |  | pEC50 ([1]; Table 11): 10.47; pEC50 ([2]; Table 11, read-out: CTa receptor human EC50): 10.41
3 | 9.61 | 9.36 | 7 | > 200 | > 200 | > 200 | > 200 | > 200 | > 200 | > 200 | > 200 | > 200 | CC[C@H](C)[C@H](NC(=O)[C@@H]1CCCN1C(=O)CNC(=O)[C@H](Cc1ccccc1)NC(=O)[C@H](CC(N)=O)NC(=O)[C@H](CC(N)=O)NC(=O)[C@H](CO)NC(=O)[C@H](CO)NC(=O)[C@H](Cc1c[nH]cn1)NC(=O)[C@H](Cc1c[nH]cn1)NC(=O)[C@H](CC(C)C)NC(=O)[C@H](Cc1ccccc1)NC(=O)[C@H](CCC(=O)O)NC(=O)[C@H](C)NC(=O)[C@H](CC(C)C)NC(=O)[C@H](CCCNC(=N)N)NC(=O)[C@H](CCC(N)=O)NC(=O)[C@@H](NC(=O)[C@H](C)NC(=O)[C@@H]1CSSC[C@H](NC(=O)[C@H](Cc2c[nH]cn2)NC(=O)[C@H](CCC(=O)O)NC(=O)CC[C@H](NC(=O)CCCCCCCCCCCCCCCCCCC(=O)O)C(=O)O)C(=O)N[C@@H](CC(N)=O)C(=O)N[C@@H]([C@@H](C)O)C(=O)N[C@@H](C)C(=O)N[C@@H]([C@@H](C)O)C(=O)N1)[C@@H](C)O)C(=O)N[C@@H](CC(C)C)C(=O)N1CCC[C@H]1C(=O)N1CCC[C@H]1C(=O)N[C@H](C(=O)N[C@@H](CC(N)=O)C(=O)N[C@H](C(=O)NCC(=O)N[C@@H](CO)C(=O)N[C@@H](CC(N)=O)C(=O)N[C@H](C(=O)N[C@@H](Cc1ccc(O)cc1)C(N)=O)[C@@H](C)O)C(C)C)[C@@H](C)O [Example 40, N-alpha-[(S)-4-Carboxy-4-(19-carboxynonadecanoylamino)butyryl]-Glu-[His1,Glu14,His17]-pramlintide] ({C20 diacid-γGlu}-EHCNTATCATQRLAEFLHHSSNNFGPILPPTNVGSNTY-NH2; disulfide 3-8 (inferred); C-terminus assumed) |  | solubility at 18 h ([4]; bistrispropane buffer, pH 7, pH 7.0, 18 hours at room temperature, Table 3, read-out: Solubility pH 7.0): > 200 µM

Row | SMILES | pEC50 [1, 5] | pEC50 [2, 6] | ThT pH 4.0 lag time (h) [3] [h] | solubility at 18 h [4, 7] [µM] | solubility at 18 h [4, 8] [µM] | solubility at 18 h [4, 9] [µM] | solubility at 18 h [4, 10] [µM] | solubility at 18 h [4, 11] [µM] | solubility at 18 h [4, 12] [µM] | solubility at 18 h [4, 13] [µM] | solubility at 18 h [4, 14] [µM] | solubility at 18 h [4, 15] [µM] | ThT pH 4.0 lag time [3] [h] | also measured
4 | CC[C@H](C)[C@H](NC(=O)[C@@H]1CCCN1C(=O)CNC(=O)[C@H](Cc1ccccc1)NC(=O)[C@H](CC(N)=O)NC(=O)[C@H](CC(=O)O)NC(=O)[C@H](CO)NC(=O)[C@H](CO)NC(=O)[C@H](Cc1c[nH]cn1)NC(=O)[C@H](Cc1c[nH]cn1)NC(=O)[C@H](CC(C)C)NC(=O)[C@H](Cc1ccccc1)NC(=O)[C@H](CCC(=O)O)NC(=O)[C@H](C)NC(=O)[C@H](CC(C)C)NC(=O)[C@H](CCCNC(=N)N)NC(=O)[C@H](CCC(N)=O)NC(=O)[C@@H](NC(=O)[C@H](C)NC(=O)[C@@H]1CSSC[C@H](NC(=O)[C@H](CCCCN)NC(=O)CC[C@H](NC(=O)CCCCCCCCCCCCCCCCCCC(=O)O)C(=O)O)C(=O)N[C@@H](CC(N)=O)C(=O)N[C@@H]([C@@H](C)O)C(=O)N[C@@H](C)C(=O)N[C@@H]([C@@H](C)O)C(=O)N1)[C@@H](C)O)C(=O)N[C@@H](CC(C)C)C(=O)N1CCC[C@H]1C(=O)N1CCC[C@H]1C(=O)N[C@H](C(=O)N[C@@H](CC(N)=O)C(=O)N[C@H](C(=O)NCC(=O)N[C@@H](CO)C(=O)N[C@@H](Cc1c[nH]cn1)C(=O)N[C@H](C(=O)N[C@@H](Cc1ccc(O)cc1)C(N)=O)[C@@H](C)O)C(C)C)[C@@H](C)O [Example 128, N-alpha-[(S)-4-Carboxy-4-(19-carboxynonadecanoylamino)butyryl]-[Glu14,His17,Asp21,His35]-pramlintide] ({C20 diacid-γGlu}-KCNTATCATQRLAEFLHHSSDNFGPILPPTNVGSHTY-NH2; disulfide 2-7 (inferred); C-terminus assumed) | 9.54 | 9.58 | >45 |  |  |  |  |  |  |  |  |  | >45 | solubility at 18 h ([4]; pH 3.0, read-out: Solubility pH 3.0): > 200 µM; solubility at 18 h ([4]; pH 4.0, 18 hours at room temperature, Table 2, read-out: Solubility pH 4.0): > 200 µM; solubility at 18 h ([4]; pH 4.0, read-out: Solubility pH 4.0): >200 µM; solubility at 18 h ([4]; pH 5.0, read-out: Solubility pH 5.0): > 200 µM; solubility at 18 h ([4]; pH 6.0, read-out: Solubility pH 6.0): > 200 µM; solubility at 18 h ([4]; pH 6.5, read-out: Solubility pH 6.5): 114 µM (≈ 511 µg/mL); solubility at 18 h ([4]; pH 7.0, 18 hours at room temperature, Table 3, read-out: Solubility pH 7.0): 140 µM (≈ 627 µg/mL); solubility at 18 h ([4]; pH 7.0, read-out: Solubility pH 7.0): 140 µM (≈ 627 µg/mL); solubility at 18 h ([4]; pH 7.5, read-out: Solubility pH 7.5): > 200 µM; solubility at 18 h ([4]; pH 8.0, read-out: Solubility pH 8.0): > 200 µM
